From patent US20260132123A1, “ABAD INHIBITOR COMPOUNDS” (UNIVERSITY COURT OF THE UNIVERSITY OF ST ANDREWS, priority 2021, published 2026)

Molecular target: T1, 17β-HSD10 (Homo sapiens, UniProt Q99714)
T1 construct: Histev (histidine tag with TEV site) (N, cleaved yes); made in house; host or cells: E. coli BL21-CodonPlus
T1 sequence (Q99714 1-261): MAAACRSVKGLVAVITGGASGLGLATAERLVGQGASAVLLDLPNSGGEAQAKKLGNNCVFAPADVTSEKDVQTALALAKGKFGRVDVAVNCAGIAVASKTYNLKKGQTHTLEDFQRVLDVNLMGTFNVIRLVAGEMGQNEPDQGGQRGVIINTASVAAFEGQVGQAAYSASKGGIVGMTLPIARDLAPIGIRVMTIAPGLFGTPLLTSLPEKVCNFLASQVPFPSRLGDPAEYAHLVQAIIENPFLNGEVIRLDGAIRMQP
Test: 17β-HSD10 (ABAD) enzyme inhibition assay, NADH oxidation read at 340 nm (primary screen and dose response)
Type: biochemical
Conditions: for EC50 / Max. Effect (%) / Hill Slope / Max. Fit / Min. Fit: recombinant 17βHSD10 enzyme assay; for Hill Slope / Max. Fit / Min. Fit: curve fit
Method: Cell pellets of E. coli BL21-CodonPlus cells containing Histev-17β-HSD10 protein were re-suspended for 30 min, 4° C., in lysis buffer (20 mM NaH2PO4, 30 mM imidazole, 500 mM NaCl, 10% (v/v) glycerol, pH 7.5) with the addition of complete ethylenediaminetetraacetic acid (EDTA)-free protease inhibitor tablets (Roche), lysozyme (1 mg/mL), deoxyribonuclease (DNase) (20 μg/mL) and Triton X-100 (0.1% (v/v)). Cells were lysed by passage through a cell disruptor at 30 kPSI (Constant Systems Ltd) and the lysate was cleared by centrifugation (Sorvall Evolution RC, rotor S5-34 55-34 angle, 20500 rpm, 30 min, 4° C.). Cleared lysate was filtered (0.45 μm membrane; Whatman) then applied to a Ni-nitrilotriacetic acid (NTA) (GE Healthcare) column pre-washed with lysis buffer and protein eluted with 300 mM imidazole buffer (20 mM NaH2PO4, 300 mM imidazole, 500 mM NaCl, 10% (v/v) glycerol, pH 7.5). […] Protein digestion and dialysis was carried out at 4° C. for 16 h.
Complete digestion was firstly checked by sodium dodecyl sulfate-polyacrylamide gel electrophoresis (SDS-PAGE), then fully digested protein was passed over a second Ni-column and the flow-through, containing 17β-HSD10 protein, was concentrated using a Vivaspin column (10 kDa MWCO, GE Healthcare) to ˜7 mL before final purification using gel filtration to remove imidazole (Hi-Load 16/60 Superdex 75 prep grade column, GE Healthcare, flow rate 1.5 mL/min). Protein was eluted in gel filtration buffer (10 mM trisaminomethane (Tris-HCl), 150 mM NaCl, 10% glycerol, pH 7.5) and concentrated (Vivaspin column (10 kDa molecular weight cut off (MWCO), GE Healthcare)) to 10 mg/mL. Aliquots (10 μL) were taken and flash frozen in liquid nitrogen before final storage at −80° C.
The assay buffer used contains: 10 mM Tris. HCl (pH 7.4), 150 mM NaCl, 1 mM DTT, 0.005% Tween (polysorbate 20) and 0.01% bovine serum albumin (BSA). As indicated for some experiments the assay buffer was supplemented with 100 units/ml bovine liver catalase. All experiments were conducted in clear bottom 384-well or 1536-well low volume microplates (Corning) with a final assay volume of 20 μL and the reaction progress was monitored by oxidation of NADH as determined by reduction in absorbance at 340 nm read on the EnVision plate reader (PerkinElmer).
For primary screening an endpoint assay format was adopted in which an Echo acoustic liquid dispenser (Labcyte) was used to transfer 20 nL of either reference standard, dimethylsulfoxide (DMSO) control ([…] final assay concentration (FAC)) or test compounds (10 μM FAC) to the assay plate. 10 μL of 17β-HSD10 enzyme in assay buffer (2.5 nM, FAC) was then added to the plates using the Preddator liquid handling robot (Redd and Whyte) and plates were incubated at room temperature for 15 minutes. 10 μL of substrate mixture (100 μM acetoacetyl-CoA and 100 μM NADH, FAC) was added with the Preddator. To start the reaction and the plates were left to incubate for 35 minutes at room temperature before the absorbance at 340 nm was read on the EnVision plate reader (PerkinElmer). For kinetic assay format and dose response follow up experiments the same protocol was adopted but the absorbance at 340 nm was monitored constantly for 45 minutes from immediately after the reaction was started.

| SMILES | 17β-HSD10 / ABAD activity in words (SAR discussion) | EC50 | Max. Effect (%) | Hill Slope | Max. Fit | Min. Fit |
| --- | --- | --- | --- | --- | --- | --- |
| COc1cccc(-c2ccccc2[C@@H]2CCCN2Cc2sccc2F)c1 (racemic) [ESC1002695] | lost all activity | > 20 µM | 1% | – | – | – |
| COc1cccc(-c2ccccc2[C@H]2CCCN2C(=O)c2cc(C)cs2)c1 [ESC1002428] | – | > 20 µM | 16% | – | – | – |
| Cc1ccsc1C(=O)N1CCC[C@@H]1c1ccccc1-c1cnn(C2CCNCC2)c1 [ESC1002466] | – | 18.2 µM | 52% | 1 | 95 | −1 |
| Cc1ccsc1C(=O)N1CCC[C@@H]1c1ccccc1-c1ccccc1 [ESC1002462] | – | 0.234 µM | 99% | 1.4 | 98 | 6 |
| COc1cc(-c2ccccc2[C@@H]2CCCN2C(=O)c2sccc2Cl)ccc1F (racemic) [ESC1002699] | – | 0.263 µM | 97% | 1.2 | 96 | 5 |
| Cc1ccc(C(=O)Nc2cccc(N(C)Cc3cnc[nH]3)c2)cc1 [ESC1002054, N-[3-[1H-imidazol-5-ylmethyl(methyl)amino]phenyl]-4-methyl-benzamide] | – | > 20 µM | 3% | – | – | – |
| COc1cccc(-c2ccccc2[C@H]2CCCN2C(=O)c2sccc2F)c1 [ESC1002431] | – | 0.977 µM | 96% | 1.5 | 95 | 1 |
| COc1cccc(-c2ccccc2[C@H]2CCCN2C(=O)C2CCN(C)CC2)c1 [ESC1002436] | – | > 20 µM | 2% | – | – | – |
| COc1cccc(-c2ccccc2[C@H]2CCCN2Cc2ccccc2)c1 [ESC1002504] | – | > 20 µM | −6% | – | – | – |
| CC(C)CN(C(=O)c1ccccc1F)c1cccc(N(C)CC(N)=O)c1 [ESC1002570] | – | > 20 µM | 48% | – | – | – |
| Cc1ccc(C(=O)N(CC(C)C)c2cccc(N(C)Cc3c[nH]cn3)c2)c(C)c1 [ESC1002492, N-[3-[1H-imidazol-4-ylmethyl(methyl)amino]phenyl]-N-isobutyl-2,4-dimethyl-benzamide] | – | 0.871 µM | 93% | 0.73 | 104 | −10 |

The remaining lines, values ahead:

| 17β-HSD10 / ABAD activity in words (SAR discussion) | EC50 | Max. Effect (%) | Hill Slope | Max. Fit | Min. Fit | SMILES |
| --- | --- | --- | --- | --- | --- | --- |
| – | > 20 µM | – | – | – | – | Cc1ccsc1C(=O)N1CCC[C@H]1c1ccccc1-c1cccc(C(F)(F)F)c1 (single isomer, unassigned) [ESC1002789] |
| – | > 20 µM | 18.4% | – | – | – | CCN(C(=O)c1cccc(F)c1)c1cccc(N(C)Cc2cnc[nH]2)c1 [S2−T5, N-ethyl-3-fluoro-N-[3-[1H-imidazol-5-ylmethyl(methyl)amino]phenyl]benzamide] |
| – | > 20 µM | 22.3% | – | – | – | O=C(c1ccncc1)N1CCC[C@H]1c1ccccc1 [S1−T13, 4-{[(2S)-2-phenylpyrrolidin-1-yl]carbonyl}pyridine] |
| – | 0.661 µM | – | – | – | – | Cc1ccsc1C(=O)N1CCC[C@H]1c1ccccc1-c1cccc(C(F)(F)F)c1 (single isomer, unassigned) [ESC1002790] |
| – | > 20 µM | 7.1% | – | – | – | O=C(c1ncn[nH]1)N1CCC[C@H]1c1ccccc1 [S1−T3, 5-{[(2S)-2-phenylpyrrolidin-1-yl]carbonyl}-1H-1,2,4-triazole] |
| – | > 20 µM | 4.8% | – | – | – | CCN(C(=O)c1ccccc1F)c1cccc2c1ncc(=O)n2Cc1cnc[nH]1 [S2−T2, N-ethyl-2-fluoro-N-[1-(1H-imidazol-5-ylmethyl)-2-oxo-1,2 dihydroquinoxalin-5-yl]benzamide] |
| – | > 20 µM | 6.4% | – | – | – | O=C(c1ncc[nH]1)N1CCC[C@H]1c1ccccc1 [S1−T2, 2-{[(2S)-2-phenylpyrrolidin-1-yl]carbonyl}-1H-imidazole] |
